Laboratory results reported in patent publication US12599657B2 (priority 2020, dated 2026).
Where two headings read alike, the source gives them in different places.

Key:
E. maxima [1] = details: Third Study; Day 26; 0 to 4 score; Salinomycin 60 g/ton No Vacc; Disclosed compound 1.0/1.0/0.5 lb/ton with Vacc
E. tenella [2] = details: Third Study; Day 26; 0 to 4 score; Salinomycin 60 g/ton No Vacc; Disclosed compound 1.0/1.0/0.5 lb/ton with Vacc
E. tenella [3] = details: First Study; DOT 26; Johnson and Reid 0 to 4 score; Salinomycin 60 gms/ton No Vaccine; Cocci Vaccine alone
[4] = system: E. acervulina, E. maxima, and E. tenella; assay: First Study: broiler performance (feed intake, FCR, weight gain, mortality) under coccidia challenge; type: in vivo; details: Cocci Vaccine alone
Description: (§1) Testing in all three studies set forth below was undertaken using a high oocyst dose vaccine, Coccivac-B52 (trademark, Intervet Inc.), a product sold by Merck Animal Health. According to the manufacturer, Coccivac-B52 contains E. acervulina, E. maxima, E. mivati, and E. tenella. The vaccine was mixed with water at a dosage of 240 ml of water per 1,000 doses. The vaccine-water combination was placed in a sealed vaccine container and mixed by stirring and inversion of the container. The mixed vaccine-water combination was sprayed onto each chick when one day old in a conventional spray cabinet. It was estimated that each chick ingested an equal number of droplets so as to result in the ingestion of about 240 μL dose per chick.
The rations consisted of non-medicated commercial-type broiler starter, grower, and finisher diets compounded according to NRC guidelines and contained feedstuffs commonly used in the United States. As a common regime rations for some but not necessarily all studies were fed ad libitum from date of chick arrival as follows: Starter—DOT 0 until DOT 14, grower DOT 14 to DOT 28, and finisher from DOT 28 to DOT 42 (study termination).
Diets were fed as crumbles in starter and pellets in grower and finisher. Experimental treatment feeds were prepared from a basal feed formulation. Quantities of all basal feed and test articles included in treatment group batches were documented and included with source data files. Treatment feeds were mixed prior to pelleting to assure uniform distribution of respective test articles.
Fifteen hundred birds (1,500) were assigned to six (6) treatment groups with ten (10) replicate pens per treatment and 25 birds per pen. The study began when birds were placed (day-of-hatch; DOT 0), at which time birds were allocated to experimental pens. Only healthy birds were selected. On DOT 0, group body weights were recorded by pen. No birds were replaced during the course of the study.
Birds received treatment-appropriate feed from day 0 to day 42. On day 14, remaining starter feed was removed, weighed, and replaced with grower feed to day 28. On day 28, the remaining grower feed was removed, weighed back, and replaced with finisher feed to day 42.
On Day 42, the trial was terminated.

[5] = system: E. acervuline, E. maxima, and E. tenella; assay: Third Study: broiler performance (feed intake, FCR, weight gain, mortality) under coccidia challenge; type: in vivo, male broiler chicks; details: Day 0 to 41, challenge day 21, Salinomycin 60 g/ton No Vacc, Disclosed compound 1.0/1.0/0.5 lb/ton with Vacc
[6] = system: E. acervulina, E. maxima, and E. tenella; assay: First Study: average coccidia lesion score; type: in vivo, broiler; details: DOT 26, Johnson and Reid 0 to 4 score, Salinomycin 60 gms/ton No Vaccine, Cocci Vaccine alone
E. tenella [7] = details: First Study; feces on DOT 26; Salinomycin 60 gms/ton No Vaccine; Cocci Vaccine alone
E. acervulina [8] = details: First Study; feces on DOT 26; Salinomycin 60 gms/ton No Vaccine; Cocci Vaccine alone
E. acervulina [9] = details: First Study; DOT 26; Johnson and Reid 0 to 4 score; Salinomycin 60 gms/ton No Vaccine; Cocci Vaccine alone
[10] = system: E. acervulina, E. maxima, and E. tenella; assay: Third Study: average coccidia lesion score; type: in vivo, male broiler chicks; details: Day 26, 0 to 4 score, Salinomycin 60 g/ton No Vacc, Disclosed compound 1.0/1.0/0.5 lb/ton with Vacc
[11] = system: E. acervulina, E. maxima, and E. tenella; assay: Third Study: total oocysts per gram of feces; type: in vivo, male broiler chicks
E. tenella [12] = details: Third Study; feces Day 26; Salinomycin 60 g/ton No Vacc; Disclosed compound 1.0/1.0/0.5 lb/ton with Vacc
E. acervulina [13] = details: Third Study; Day 26; 0 to 4 score; Salinomycin 60 g/ton No Vacc; Disclosed compound 1.0/1.0/0.5 lb/ton with Vacc
[14] = system: E. acervuline, E. maxima, and E. tenella; assay: Third Study: broiler performance (feed intake, FCR, weight gain, mortality) under coccidia challenge; type: in vivo, male broiler chicks; details: Disclosed compound 1.0/1.0/0.5 lb/ton with Vacc
Description: as §1
Rations consisted of non-medicated commercial-type broiler starter, grower, and finisher diets compounded according to NRC guidelines and contain feedstuffs commonly used in the United States. Day-of-hatch male broiler chicks were utilized in the study. Rations were fed ad libitum from date of chick arrival as follows: Starter—day 0 until day 14, grower day 14 to day 28, and finisher from day 28 to day 42 (the end date of the study). Coccidia vaccination for treatments 4 and 5 only.
One thousand five hundred birds (1,500) were randomly assigned to 5 treatment groups with 12 replicate pens per treatment and 25 birds per pen. The study began when birds were placed (day-of-hatch; DAY 0), at which time birds were allocated to experimental pens. On day 0, group body weights were recorded by pen. No birds were replaced during the course of the study.
All birds were weighed by pen on days 0, 14, 28, and 42. Feed added to each pen's feeder was weighed at the beginning of each formulation period on day 0 (starter), day 14 (grower), and day 28 (finisher). Feed was distributed as needed to feeders from pre-weighed bags assigned to each pen throughout each period. Feed remaining in feeders was weighed and disposed of on days 14, 28, and 42. The trial was terminated on day 42.

E. maxima [15] = details: Third Study; feces Day 26; Salinomycin 60 g/ton No Vacc; Disclosed compound 1.0/1.0/0.5 lb/ton with Vacc
E. maxima [16] = details: First Study; feces on DOT 26; Salinomycin 60 gms/ton No Vaccine; Cocci Vaccine alone
[17] = system: E. acervulina, E. maxima, and E. tenella; assay: First Study: total oocysts per gram of feces; type: in vivo, broiler; details: feces on DOT 26, Salinomycin 60 gms/ton No Vaccine, Cocci Vaccine alone
E. acervulina [18] = details: Third Study; feces Day 26; Salinomycin 60 g/ton No Vacc; Disclosed compound 1.0/1.0/0.5 lb/ton with Vacc
E. maxima [19] = details: First Study; DOT 26; Johnson and Reid 0 to 4 score; Salinomycin 60 gms/ton No Vaccine; Cocci Vaccine alone
[20] = Day 0 to 14, cocci challenge Day 20, Salinomycin 60 gms/ton No Vaccine
[21] = Day 0 to 28, cocci challenge Day 20, Salinomycin 60 gms/ton No Vaccine
[22] = Day 0 to 42, cocci challenge Day 20, Salinomycin 60 gms/ton No Vaccine
[23] = Day 0 to 14, challenge day 21, Salinomycin 60 g/ton No Vacc
[24] = Day 0 to 28, challenge day 21, Salinomycin 60 g/ton No Vacc

SMILES: CC[C@@H](C(=O)[C@@H](C)[C@@H](O)[C@H](C)[C@@H]1O[C@@H]([C@@H](CC)C(=O)O)CC[C@@H]1C)[C@H]1O[C@]2(C=C[C@@H](O)[C@]3(CC[C@@](C)([C@H]4CC[C@](O)(CC)[C@H](C)O4)O3)O2)[C@H](C)C[C@@H]1C [Salinomycin]
- Mean Coccidia Lesion Score, E. maxima (E. maxima [1]): 1.78AB
- Mean Coccidia Lesion Score, E. tenella (E. tenella [2]): 2.03AB
- Mean Coccidia Lesion Score, E. tenella (E. tenella [3]): 2.17AB
- Adjusted FCR (feed conversion ratio adjusted for mortality) [4, 20]: 1.58A
- Feed Intake [4, 20]: 11.48A
- Non-Adjusted FCR [4, 20]: 1.60A
- Weight Gain [4, 20]: 0.31B kg
- Adjusted FCR (feed conversion ratio adjusted for mortality) [4, 21]: 1.64B
- Feed Intake [4, 21]: 38.69C
- Non-Adjusted FCR [4, 21]: 1.78AB
- Weight Gain [4, 21]: 1.01B kg
- Adjusted FCR (feed conversion ratio adjusted for mortality) [4, 22]: 1.67B
- Cocci Percent Mortality [4, 22]: 8.40A Percent
- Feed Intake [4, 22]: 80.16B
- Non-Adjusted FCR [4, 22]: 1.81AB
- Percent Mortality [4, 22]: 18.00A Percent
- Weight Gain [4, 22]: 2.39AB kg
- Adjusted FCR (FCR adjusted for mortality) [5]: 1.60AB
- Cocci Percent Mortality [5]: 0.00A Percent
- Feed Intake [5]: 92.63B
- Non-Adjusted FCR [5]: 1.61BC
- Percent Mortality [5]: 1.33B Percent
- Weight Gain [5]: 2.49BC kg
- Percent Mortality ([5]; listed as salinomycin): 1.33%
- Mean Coccidia Lesion Score, Average [6]: 1.97BC
- OPG T (E. tenella [7]): 834A oocysts per gram
- OPG A (E. acervulina [8]): 49418AB oocysts per gram
- Mean Coccidia Lesion Score, E. acervulina (E. acervulina [9]): 1.80BC
- Mean Coccidia Lesion Score, Average [10]: 2.04AB
- count of oocysts among groups ([11]; day of feces collection (day 27)): highest count of oocysts
- Total OPG ([11]; feces Day 26, Salinomycin 60 g/ton No Vacc, Disclosed compound 1.0/1.0/0.5 lb/ton with Vacc): 55,117A oocysts per gram
- OPG T (E. tenella [12]): 21,455A oocysts per gram
- Mean Coccidia Lesion Score, E. acervulina (E. acervulina [13]): 2.31A
- Adjusted FCR (FCR adjusted for mortality) [14, 23]: 1.41A
- Feed Intake [14, 23]: 12.09A
- Non-Adjusted FCR [14, 23]: 1.42A
- Weight Gain [14, 23]: 0.34B kg
- Adjusted FCR (FCR adjusted for mortality) [14, 24]: 1.50AB
- Feed Intake [14, 24]: 44.75B
- Non-Adjusted FCR [14, 24]: 1.51B
- Weight Gain [14, 24]: 1.20B kg
- OPG M (E. maxima [15]): 9,666A oocysts per gram
- OPG M (E. maxima [16]): 2615A oocysts per gram
- Total OPG [17]: 52866AB oocysts per gram
- OPG A (E. acervulina [18]): 23,995A oocysts per gram
- Mean Coccidia Lesion Score, E. maxima (E. maxima [19]): 1.93A
